Experimental data as given in patent publication US20220048915A1 (SHANGHAI PHARMACEUTICALS HOLDING CO., LTD., priority 2018, published 2022).

How the values were obtained:
p38α = p38α (Homo sapiens, UniProt Q16539); assay: In vitro inhibition of p38 kinase (LANCE Ultra TR-FRET); type: biochemical; conditions: read-out: Kinase in vitro IC50(nM) p38α
BV-2 cells = assay: Inhibition of inflammation in LPS-stimulated BV-2 cells (ELISA of inflammatory factors); type: cell-based; conditions: Mus musculus, 100 ng/mL LPS 4 hours; for Emax: read-out: BV-2 Max Inh. (%); for IC50: read-out: BV-2 Rf IC50
Procedure: Normal cultured 8th passage BV-2 cells were taken, and inoculated separately in 96-well plates at a certain cell density. The cell culture plates were cultured at 37° C. and 5% CO2 for 24 hours.
After inoculating the plate for 24 hours, the cell culture medium was removed, and then 100 μL of a 4-fold gradient dilution compound starting from 10,000 nM prepared in DMEM+10% FBS, where High control and Low control contained 0.1% DMSO without compound. With 100 μL per well, the cell culture plate was cultured at 37° C. with 5% CO2 for one hour.
The compound-containing cultures were removed. 100 ng/mL of LPS was prepared with DMEM+10% FBS culture medium, and then the compound was diluted in a 4-fold gradient from 10,000 nM with LPS-containing culture medium. In low control, the compound was replaced with 0.1% DMSO. In High control, 0.1% DMSO was prepared with culture medium without LPS. 100 μL per well, and the cell culture plates were cultured at 37° C. with 5% CO2 for 4 hours.
After 4 hours of LPS stimulation, 110 μL of the culture solution was aspirated, and centrifuged at 2000 rpm for 2 minutes. A further 90 μl of supernatant was aspirated and immediately put into −20° C. for freezing.
ELISA kits were used to detect the expression of inflammatory factors such as IL-10, TNFα, etc. The OD450 signal values were measured by microplate reader. The in vitro inhibitory activity of the compounds was calculated according to the following formula: Inhibition rate: Inhibition rate (%)=(signal value of control−signal value of administration)/(high signal value of control−low signal value of control)×100%. And according to the inhibition rate of each concentration, Graphpad Prism 5.0 was used to curve fit the […] signal values at each concentration and calculate the corresponding IC50, which is shown in Table 1.

p38γ = target: T1, p38γ (Homo sapiens, UniProt P53778); assay: In vitro inhibition of p38 kinase (LANCE Ultra TR-FRET); type: biochemical; conditions: read-out: Kinase in vitro IC50(nM) p38γ
T1 sequence (P53778 1-367): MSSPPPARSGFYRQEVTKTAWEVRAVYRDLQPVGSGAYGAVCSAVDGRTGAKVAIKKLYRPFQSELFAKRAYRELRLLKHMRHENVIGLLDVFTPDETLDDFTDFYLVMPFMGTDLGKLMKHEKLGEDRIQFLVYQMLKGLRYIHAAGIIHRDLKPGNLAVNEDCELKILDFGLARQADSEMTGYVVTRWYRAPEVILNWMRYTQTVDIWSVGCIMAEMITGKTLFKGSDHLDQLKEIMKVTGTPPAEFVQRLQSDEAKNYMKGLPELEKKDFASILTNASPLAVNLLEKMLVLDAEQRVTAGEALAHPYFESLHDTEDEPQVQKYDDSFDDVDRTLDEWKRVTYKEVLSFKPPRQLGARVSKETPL
Procedure: 10 mM of the storage solution of the test compound was taken and placed in a 96-well compound plate, and using DMSO for the compound at an initial concentration of 100×, which was then used as the first concentration and then carried out a 3-fold gradient dilution with DMSO for a total of 10 concentrations. After that, 1 μL of gradient dilutions were added to 19 μL of 1× reaction buffer to prepare 5× compound for later use. […] To the compound-free control well was added 2 μL of the following liquid: 19 μL of 1× reaction buffer with addition of 1 μL of DMSO. To the Min control well was added 2 μL of 250 mM EDTA.
1× of LANCE® Detection value Buffer was used to prepare a 2×Antibody for use, and the amount was 5 μL per well, at the same time 10 mM EDTA was prepared for later use. After the enzyme reaction was carried out for 30 minutes, 5 μL 10 mM EDTA was added to the 384-well plate and the reaction was carried out at room temperature for 5 minutes. Afterwards, 5 μL LANCE® Ultra Europium-anti-phospho-eIF4E-binding protein 1 (Thr37/46) was added to the 384-well plate and the reaction was carried out at room temperature for one hour.

[1] = Pharmacokinetic properties in mice; type: in vivo, ICR mice; conditions: for absorption compared with the positive compound VX-745 at the same dose: 10 mg/kg; for Thalf (iv): iv 3 mg/kg; for Cmax / MRT / Tmax: male, ICR, mouse, plasma; for Cmax / MRT / Tmax / AUClast (po): po 10 mg/kg; for BA: po 10 mg/kg vs iv 3 mg/kg; for AUClast (po): 5-1440 minutes
Procedure: Forty-eight male ICR mice, weighing 18-22 g (provided by Shanghai Xipuerbikai Laboratory Animal Co., Ltd, Certificate No.: 20130016008116). The mice were […] for 12-16 hours before the experiment but water was allowed.
Blood samples were collected from the fundus vein of mice before and at 2, 5, 15, 30, 60, 90, 120, 240, 480, 600, and 1440 minutes of the administration, respectively.
Blood samples were collected from the fundus vein of mice before and at 5, 15, 30, 60, 90, 120, 240, 480 and 1440 minutes of administration, respectively.
2-3 time points were taken for each mouse. The mice were sacrificed at 5, 15, 30, 60 and 1440 minutes after the administration (3 mice per time point), and the brains were taken, rinsed with saline, dried on filter paper and weighed.
(§1) Blood samples were centrifuged at 8000 rpm for 5 minutes, and supernatant plasma was taken. To 50 μL of plasma samples was added 300 μL of acetonitrile containing internal standard (propranolol, 25 ng/mL) to precipitate the protein. After vortexing for 10 minutes and centrifuging at 6000 g and 4° C. for 10 minutes, the supernatant was taken and placed in a 96-well plate for determination of drug concentration in plasma by UPLC/MS-MS.

p38β = p38β (Homo sapiens, UniProt Q15759); assay: In vitro inhibition of p38 kinase (LANCE Ultra TR-FRET); type: biochemical; conditions: read-out: Kinase in vitro IC50(nM) p38β
Sequence of p38β (Q15759 whole entry): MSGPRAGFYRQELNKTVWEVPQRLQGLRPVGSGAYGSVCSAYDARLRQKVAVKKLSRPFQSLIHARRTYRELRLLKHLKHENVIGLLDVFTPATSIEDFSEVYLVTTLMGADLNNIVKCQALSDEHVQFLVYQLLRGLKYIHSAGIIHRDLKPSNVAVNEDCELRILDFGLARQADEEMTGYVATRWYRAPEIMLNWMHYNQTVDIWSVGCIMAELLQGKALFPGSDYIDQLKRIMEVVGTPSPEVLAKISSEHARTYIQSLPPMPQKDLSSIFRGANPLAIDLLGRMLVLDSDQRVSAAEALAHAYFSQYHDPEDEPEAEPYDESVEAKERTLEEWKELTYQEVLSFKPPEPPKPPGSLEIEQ

[2] = Pharmacokinetic properties in rats; type: in vivo, SD rats; conditions: for Cmax / MRT / Tmax: male, SD, plasma; for Cmax / MRT / Tmax / Thalf (iv) / BA / AUClast (po): rat; for Cmax / MRT / Tmax / AUClast (po): po 6 mg/kg; for Thalf (iv): iv 3 mg/kg; for BA: po 6 mg/kg vs iv 3 mg/kg; for AUClast (po): 5-1440 minutes; for absorption compared with the positive compound VX-745 at the same dose: rats, 6 mg/kg
Procedure: Ten male SD rats, weighing 180-220 g (provided by Shanghai Xipuerbikai Laboratory Animal Co., Ltd, Certificate No.: 20130016008116). The rats were fasted for feed for 12-16 hours before the experiment but water was allowed.
Blood samples were collected from the fundus vein of rats before and at 2, 5, 15, 30, 60, 90, 120, 240, 360, 480, 600 and 1440 minutes after administration, respectively.
Blood samples were collected from the fundus vein of rats before and at 5, 15, 30, 60, 90, 120, 240, 360, 480, 600, 1440 minutes after administration respectively.
as §1

Sequence of p38α (Q16539 whole entry): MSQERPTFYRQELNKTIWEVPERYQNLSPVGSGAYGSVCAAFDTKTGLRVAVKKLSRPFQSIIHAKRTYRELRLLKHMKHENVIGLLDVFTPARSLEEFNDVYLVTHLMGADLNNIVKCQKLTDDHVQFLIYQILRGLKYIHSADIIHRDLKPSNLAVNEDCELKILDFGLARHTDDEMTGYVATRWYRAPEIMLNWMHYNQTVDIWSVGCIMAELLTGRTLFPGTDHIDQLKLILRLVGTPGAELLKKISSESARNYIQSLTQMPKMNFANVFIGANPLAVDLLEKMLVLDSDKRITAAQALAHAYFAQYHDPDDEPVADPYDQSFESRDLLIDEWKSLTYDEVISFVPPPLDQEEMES

Compound | IC50 (p38α) | IC50 (BV-2 cells) | IC50 (p38γ) | absorption compared with the positive compound VX-745 at the same dose [1] | Thalf (iv) [1] | Cmax [1] | MRT [1] | Tmax [1] | BA [1] | AUClast (po) [1] | IC50 (p38β) | Cmax [2] | MRT [2] | Tmax [2] | Thalf (iv) [2] | BA [2] | AUClast (po) [2] | absorption compared with the positive compound VX-745 at the same dose [2] | Emax (BV-2 cells)
O=c1ncn2nc(Oc3ccc(F)cc3F)ccc2c1-c1c(F)cccc1Cl [Compound I-62, 5-(2-chloro-6-fluorophenyl)-2-(2,4-difluorophenoxy)-6H-pyrimido[1,6-b]pyridazin-6-one] | 12.1 nM | 14.2 nM | > 3330 nM | better | 3.32 h | 1600 ng/mL | 3.18 h | 1 h | 103.4% | 4522 (h)*(ng/mL) | 101 nM |  |  |  |  |  |  |  | 48.6%
O=c1ncn2nc(Oc3cc(F)c(F)cc3F)ccc2c1-c1c(Cl)cccc1Cl [Compound I-43] | 10.7 nM | 21.5 nM | > 3330 nM | better | 2.97 h | 1280 ng/mL | 4.34 h | 2 h | 89.17% | 6540 (h)*(ng/mL) | 95.1 nM | 601 ng/mL | 4.7 h | 4 h | 3.7 h | 123.3% | 2994 (h)*(ng/mL) | better | 50.9%
O=c1ncn2nc(Oc3ccccc3F)ccc2c1-c1c(Cl)cccc1Cl [Compound I-27, 5-(2,6-dichlorophenyl)-2-(2-fluorophenoxy)-6H-pyrimido[1,6-b]pyridazin-6-one] | 11.7 nM | 18.8 nM | > 3330 nM |  |  |  |  |  |  |  | 109 nM |  |  |  |  |  |  |  | 41.9%
O=c1ncn2nc(Oc3ccc(Cl)cc3Br)ccc2c1-c1c(Cl)cccc1Cl [Compound I-15, 2-(2-bromo-4-chlorophenoxy)-5-(2,6-dichlorophenyl)-6H-pyrimido[1,6-b]pyridazin-6-one] | 41.3 nM | 132 nM | > 3330 nM |  |  |  |  |  |  |  | 263 nM |  |  |  |  |  |  |  | 46%
O=c1ncn2nc(Oc3ccc(F)cc3)ccc2c1-c1c(Cl)cccc1Cl [Compound I-19, 5-(2,6-dichlorophenyl)-2-(4-fluorophenoxy)-6H-pyrimido[1,6-b]pyridazin-6-one] | 22.4 nM | 53.8 nM | > 3330 nM | significantly higher | 3.73 h | 1820 ng/mL | 5.55 h | 1.33 h | 158.7% | 11457 (h)*(ng/mL) | 391 nM | 1090 ng/mL | 5.73 h | 3 h | 2.81 h | 87.87% | 7172 (h)*(ng/mL) | significantly higher | 61.7%
O=c1ncn2nc(Oc3ccc(Cl)cc3Cl)ccc2c1-c1c(Cl)cccc1Cl [Compound I-20, 2-(2,4-dichlorophenoxy)-5-(2,6-dichlorophenyl)-6H-pyrimido[1,6-b]pyridazin-6-one] | 17.6 nM | 23.3 nM | > 3330 nM |  |  |  |  |  |  |  | 96 nM |  |  |  |  |  |  |  | -60%

More lines, in order of falling IC50 (p38α), values ahead:

IC50 (p38α) | IC50 (BV-2 cells) | IC50 (p38γ) | absorption compared with the positive compound VX-745 at the same dose [1] | Thalf (iv) [1] | Cmax [1] | MRT [1] | Tmax [1] | BA [1] | AUClast (po) [1] | IC50 (p38β) | Cmax [2] | MRT [2] | Tmax [2] | Thalf (iv) [2] | BA [2] | AUClast (po) [2] | absorption compared with the positive compound VX-745 at the same dose [2] | Compound | Emax (BV-2 cells)
49.3 nM | 94.3 nM | > 3330 nM |  |  |  |  |  |  |  | 389 nM |  |  |  |  |  |  |  | O=c1ncn2nc(Oc3ccc(F)c(Br)c3)ccc2c1-c1c(Cl)cccc1Cl [Compound I-5, 2-(3-bromo-4-fluorophenoxy)-5-(2,6-dichlorophenyl)-6H-pyrimido[1,6-b]pyridazin-6-one] | 44%
34.1 nM | 678 nM | > 3330 nM |  |  |  |  |  |  |  | 406 nM |  |  |  |  |  |  |  | O=c1ncn2nc(Oc3c(F)ccc(F)c3Cl)ccc2c1-c1c(Cl)cccc1Cl [Compound I-29, 2-(2-chloro-3,6-difluorophenoxy)-5-(2,6-dichlorophenyl)-6H-pyrimido[1,6-b]pyridazin-6-one] | -50%
25.9 nM | 6.19 nM | > 3330 nM |  |  |  |  |  |  |  | 109 nM |  |  |  |  |  |  |  | O=c1ncn2nc(Oc3cc(Br)ccc3Cl)ccc2c1-c1c(Cl)cccc1Cl [Compound I-16, 2-(5-bromo-2-chlorophenoxy)-5-(2,6-dichlorophenyl)-6H-pyrimido[1,6-b]pyridazin-6-one] | 44.2%
